Measured values as given in patent publication US20030162803A1, “Anhydrovinblastine for the treatment of cancer” (priority 1997, published 2003).

Tested on: C-4 cells
Test: Cytotoxicity assay, C-4 (FIG. 8)
Assay type: cell-based, human
Conditions: 3 day incubation
Procedure: The IC50s for the SK0V3 and C-4 cells were 4.0 μM and 0.02 μM respectively. Both cell lines were obtained from the ATCC and grown using standard growth techniques and medium as described above. The IC50s were determined through standard cytoxicity assays described above, with each well containing approximately 10^4 cells.

Q: With `CCC1=C[C@H]2CN(CCc3c([nH]c4ccccc34)[C@@](C(=O)OC)(c3cc4c(cc3OC)N(C)[C@H]3[C@@](O)(C(=O)OC)[C@H](OC(C)=O)[C@]5(CC)C=CCN6CC[C@]43[C@@H]65)C2)C1` [AHVB, 3′,4′-anhydrovinblastine] as the compound, how does the IC50 read?
A: 0.02 µM
